Source: ChEMBL document CHEMBL3244280, “Thiazolinone analogues of indolmycin with antiviral and antibacterial activity” (J Med Chem, 1978)
In brackets after ≈: the same amount, converted by molar mass. Activity calls are given as the source filed them. The calls are words filed in the database; no cut-off is given here.

Legend:
[1] = Cytotoxicity against BHK cells; assay type: cell-based, Mesocricetus auratus; conditions: hamster
Staphylococcus aureus [2] = test: Antibacterial activity against Staphylococcus aureus Russel; assay type: functional
Streptococcus pyogenes = test: Antibacterial activity against Streptococcus pyogenes CN10; assay type: functional
Staphylococcus aureus [3] = test: Antibacterial activity against Staphylococcus aureus 1517; assay type: functional
Influenza A virus [4] = test: Antiviral activity against influenza A virus NWS/H0N1 infected in BHK cells by agar diffusion assay; assay type: functional
Bacillus subtilis = test: Antibacterial activity against Bacillus subtilis; assay type: functional
Enterococcus faecalis = test: Antibacterial activity against Streptococcus faecalis I; assay type: functional
Coxsackievirus B1 [5] = test: Antiviral activity against Coxsackievirus B1 infected in human HeLa cells at 1 mg/ml by agar diffusion assay; assay type: functional; conditions: Enterovirus B; read-out: IZ
Human alphaherpesvirus 1 = test: Antiviral activity against Herpes simplex virus 1 infected in chick embryo fibroblasts by plaque reduction assay; assay type: functional, organism-based
[6] = Cytotoxicity against human HeLa cells by neutral red assay; assay type: cell-based
Staphylococcus aureus [7] = test: Antibacterial activity against Staphylococcus aureus Oxford; assay type: functional
Influenza A virus [8] = test: Antiviral activity against influenza A virus NWS/H0N1 infected in BHK cells at 1 mg/ml by agar diffusion assay; assay type: functional; conditions: read-out: IZ
Coxsackievirus B1 [9] = test: Antiviral activity against Coxsackievirus B1 infected in human HeLa cells by agar diffusion assay; assay type: functional

SMILES	MCC [1]	MIC (Staphylococcus aureus [2])	MIC (Streptococcus pyogenes)	MIC (Staphylococcus aureus [3])	PDD50 (Influenza A virus [4])	MIC (Bacillus subtilis)	MIC (Enterococcus faecalis)	zone of inhibition at 1000 µg/mL (Coxsackievirus B1 [5])	Activity (Human alphaherpesvirus 1)	MCC [6]	MIC (Staphylococcus aureus [7])	zone of inhibition at 1000 µg/mL (Influenza A virus [8])	PDD50 (Coxsackievirus B1 [9])
CNC1=NC(=O)C(Cc2c[nH]c3ccccc23)S1 (racemic)	30 µg/mL	20 µg/mL (≈ 77.1 µM)	200 µg/mL (≈ 771 µM)	20 µg/mL (≈ 77.1 µM)	10 µg/mL	> 200 µg/mL	20 µg/mL (≈ 77.1 µM)	9 mm	inactive	> 100 µg/mL	20 µg/mL (≈ 77.1 µM)	14 mm	100 µg/mL
CCNC1=NC(=O)[C@H]([C@H](C)c2c[nH]c3ccccc23)S1 (racemic)	10 µg/mL	20 µg/mL (≈ 69.6 µM)	200 µg/mL (≈ 696 µM)	20 µg/mL (≈ 69.6 µM)	5 µg/mL	200 µg/mL (≈ 696 µM)	20 µg/mL (≈ 69.6 µM)	16 mm	inactive	> 100 µg/mL	20 µg/mL (≈ 69.6 µM)	34 mm	10 µg/mL
C[C@H](c1c[nH]c2ccccc12)[C@@H]1SC(NCCO)=NC1=O (racemic)	100 µg/mL	200 µg/mL (≈ 659 µM)	200 µg/mL (≈ 659 µM)	200 µg/mL (≈ 659 µM)	>30 µg/mL	> 200 µg/mL	200 µg/mL (≈ 659 µM)	20 mm	inactive	> 100 µg/mL	200 µg/mL (≈ 659 µM)	8 mm	16 µg/mL
